Measurements taken from patent US20250057911A1, “OVARY-TARGETING POLYPEPTIDE, AND DERIVATIVE AND THE USE THEREOF” (SHENZHEN INSTITUTES OF ADVANCEDTECHNOLOGY CHINESE ACADEMY …, priority 2022, published 2025).
Ends that are not written are not given here.

Columns and labels:
ovary [1] = assay: Mouse ovary-targeting capacity of polypeptide ICG probe (small animal imaging); format: in vivo; details: adult mice, tail vein injection 100 μL/mouse, imaged after 24 h; FIG. 1
Procedure: A solution of the polypeptide ICG probe (containing SEQ ID NO: 1) prepared in Example 2, an ICG solution (2 mM), and PBS were injected intravenously into the tail of the adult mice at 100 μL/mouse. After 24 h, the mice were detected under an imager for small animals.

mouse ovary = assay: Localization of polypeptide targeting in mouse ovary (cryosection, laser confocal microscope); format: in vivo; details: ovaries from Example 4, 10 μm cryosections, DAPI; FIG. 3
From the text: To further confirm the localization for the targeting of the polypeptide to the ovary, the four groups of mouse ovaries from Example 4 were fixed with 4% PFA, then cryosectioned (10 μm), stained for cell nuclei (DAPI), and observed for fluorescence localization under a laser confocal microscope.

ovary [2] = assay: Mouse ovary-targeting capacity of polypeptide AIE probe (small animal imaging); format: in vivo; details: adult mice, tail vein injection 100 μL/mouse, imaged after 24 h; FIG. 2
Procedure: The polypeptide AIE probe (containing SEQ ID NO: 1) prepared in Example 2, a scrambled polypeptide AIE probe, an AIE empty particle, and PBS were injected intravenously into the tail of the adult mice at 100 μL/mouse. After 24 h, the mice were detected under an imager for small animals.

[3] = test system: DHT-induced hyperandrogenic female mice; assay: Hyperandrogen dihydrotestosterone (DHT)-induced mouse model, reproductive and metabolic symptoms; format: in vivo
Procedure: (§1) Wild type female mice at postnatal day 25 (D25) were randomly grouped into a control group (CTRL), a DHT group, and a DHT+OCN15 ([…] is the polypeptide set forth in SEQ ID NO: 1) group, with at least 8 mice in each group. The control group was implanted subcutaneously with an empty pump and gavaged with 200 μL of normal saline every day; the DHT group was implanted subcutaneously with a slow-release pump containing 5 mg of dihydrotestosterone (DHT) powder and gavaged with 200 μL of normal saline every day; and the DHT+OCN15 group was implanted subcutaneously with a slow-release pump containing 5 mg of DHT powder and gavaged with 200 μl of normal saline containing the polypeptide (500 μg/Kg) every day. The modeling time was 60 days.

DHT model mice liver = assay: Hyperandrogen-induced mouse liver lipid droplet accumulation (HE staining); format: in vivo; details: DHT+OCN15 treated group vs DHT model mice; FIG. 9
Procedure: as §1
The method for the induction of the mouse PCOS model by hyperandrogen DHT is described in Example 6. After modeling, the mouse liver was taken, fixed overnight by 4% paraformaldehyde (PFA), dehydrated by alcohol gradient, embedded by paraffin, sectioned (5 μm), and subjected to HE staining for morphological observation.

oocytes = assay: Oocyte post-ovulation aging model (in vitro aging in M16 medium); format: cell-based, mouse
Procedure: Wild type female mice were intraperitoneally injected with 5 IU PMSG (pregnant mare serum gonadotropin), followed by an intraperitoneal injection of 5 IU hCG (human chorionic gonadotropin) 48 h later for superovulation. Oocytes were collected after 14 h, and cumulus cells were removed using hyaluronidase. Then, the oocytes were randomly divided into the Aging group and the Aging+OCN15 group and cultured in M16 medium for aging. The Control group was aged for 0 h, the Aging group for 12 h, and the Aging+OCN15 group in M16 containing the polypeptide (1 μg/mL) for 12 h.

In the case of CC1(C)C(/C=C/C=C/C=C/C=C2\N(CCCCS(=O)(=O)[O-])c3ccc4ccccc4c3C2(C)C)=[N+](CCCCS(=O)(=O)[O-])c2ccc3ccccc3c21.[Na+] [ICG, reference compound], the “fluorescent signal at the ovarian site” value (ovary [1]) is reported as “do not show a fluorescent signal at the ovarian site”.
In the case of “OCN15-AIE: AIE probe containing SEQ ID NO: 1, polypeptide linked to AIE by click chemistry (DBCO linker) (YLGASVPSPDPLEPT; also: AIE probe attached via DBCO click linker, site not given here)”, the “fluorescence localization in the ovary” value (mouse ovary) is reported as “mainly targets the interstitial cell and the membrane cell in the mouse ovary” and the “fluorescent signal at the ovarian site” value (ovary [2]) is reported as “has a specific signal at the ovarian site”.
“OCN15-ICG: ICG probe containing SEQ ID NO: 1, polypeptide linked to ICG by click chemistry (DBCO linker) (YLGASVPSPDPLEPT; also: ICG dye attached via DBCO click linker, site not given here)” was tested, and the “fluorescent signal at the ovarian site” value (ovary [1]) was “has a specific signal at the ovarian site”.
With “YLGASVPSPDPLEPT [OCN15, mouse metabolite, ovary-targeting polypeptide]” the anogenital distance ([3]; 500 μg/Kg gavage daily with DHT pump, 60 days after modeling, FIG. 4C) was “significantly improved”, the “number of estrous days in ten days” value ([3]; 500 μg/Kg gavage daily with DHT pump, 60 days modeling, normal above 4 days, hyperandrogenic around 2 days, FIG. 4B) was ~3 days and the ovarian polycystic changes ([3]; 500 μg/Kg gavage daily with DHT pump, 60 days, FIG. 4A) was “reduce the polycystic changes”. The body weight ([3]; 500 μg/Kg gavage daily with DHT pump, FIG. 5A) was “alleviate the increase in body weight”, the body weight gain ([3]; 500 μg/Kg gavage daily with DHT pump, FIG. 5B) was “alleviate the increase in body weight and body weight gain caused by DHT to some extent” and the “weight of gonadal fat” value ([3]; 500 μg/Kg gavage daily with DHT pump, FIG. 5C) was “reducing the weight of mouse gonadal fat”. The lean body mass ([3]; 500 μg/Kg gavage daily with DHT pump, FIG. 5D) was “increased lean body mass”, the “blood glucose level after oral administration of glucose” value ([3]; at 30 min after oral glucose, 60 days after modeling, FIG. 4D) was “significant decrease in blood glucose level compared with the group with DHT alone” and the “androgen receptor AR expression in the epidermal layer of the neck and back skin” value ([3]; day 60 of modeling, immunofluorescence, FIG. 6B) was “significantly reduce DHT-caused significant increase of androgen receptor AR expression”. For the same molecule, the “hair loss on the neck and back skin” value ([3]; day 60 of modeling, FIG. 6A) was “can significantly improve the phenomenon”, the “liver lipid droplet accumulation” value (DHT model mice liver) was “alleviated” and the “oocyte fragmentation and degeneration” value (oocytes; 1 μg/mL polypeptide in M16, 12 h aging, FIG. 7A) was “ameliorate the fragmentation and degeneration caused by in vitro aging of oocytes”. The zona pellucida sclerosis (oocytes; 1 μg/mL polypeptide in M16, 12 h aging, FIG. 7B) was “ameliorate the zona pellucida sclerosis caused by in vitro aging of oocytes” and the “in vitro fertilization rate” value (oocytes; 1 μg/mL polypeptide in M16, 12 h in vitro aging, FIG. 7C) was “improve the low fertilization rate caused by in vitro aging of oocytes”.
